Measured values reported in patent publication US7759373B2, “Large conductance calcium-activated K channel opener” (Mitsubishi Tanabe Pharma Corporation, priority 2001, dated 2010).

System: rhythmic bladder contractions induced by substance P
Assay: Inhibitory effect on the rhythmic bladder contractions induced by substance P in anesthetized rats
Type: in vivo, rat
Details: time during which frequency of rhythmic contraction was completely inhibited, 0.25 mg/kg of the compound, substance P infusion
Experimental: Inhibitory effect on the rhythmic bladder contractions induced by substance P in anesthetized rats
For the experiments, Sprague-Dawley female rats (9 to 12 weeks old) weighing between 200 to 300 g were used. After urethane anesthetization (subcutaneously administered with a dose of 1.2 g/kg), cannulae were placed in both right and left femoral veins. One intravenous catheter was used for administration of compounds, and the other was for the substance P (0.33 μg/kg/min) infusion. We also cannulated into ureter to pass urine. Polyethylene catheters were inserted into carotid artery for continuous monitoring of arterial blood pressure and heart rate. For continuous infusion, transurethral bladder catheter was inserted into the bladder through the urethra and tied in place by a ligature around the urethral orifice. One end of the catheter was attached to a pressure transducer in order to measure intravesical pressure. The other end of the catheter was used for infusion of saline into the bladder. After stabilization of blood pressure and heart rate and after the bladder was emptied, cystometry was performed by filling the bladder slowly with about 0.6 ml of saline. After about 10 minutes, intravenous infusion of substance P (0.33 μg/kg/min) was started for stabilization of the micturition reflex. Compounds were administered after stable rhythmic bladder contraction was obtained over 15 minutes. All compounds were dissolved or suspended in saline containing 0.5% Tween 80 for intravenous administration (0.1 ml/kg).
A 100% inhibition time (minute) of the selected compounds of the present invention is shown in the following Table 65 with a rank of A, B or C. These ranges are as mentioned below. A≧20>B≧10>C (minute)

Molecule | 100% inhibition time range
O=C([O-])Cc1nc(-c2ccc(F)cc2)oc1-c1ccc(Cl)s1.[Na+] [Preparation Example 152, 5-(5-chloro-thiophen-2-yl)-2-(4-fluorophenyl)oxazol-4-yl acetic acid sodium salt] | B (A≧20>B≧10>C (minute))
COc1ccc(-c2nc(CC(=O)O)c(-c3cccs3)o2)cc1 [Preparation Example 155] | B (A≧20>B≧10>C (minute))
O=C(O)Cc1nc(-c2ccc(F)cc2)oc1-c1csc2ccccc12 [Preparation Example 158] | C (A≧20>B≧10>C (minute))
Cc1nc(-c2ccc(F)cc2)[nH]c1-c1ccsc1 [Preparation Example 168] | B (A≧20>B≧10>C (minute))
CCc1nc(-c2ccc(F)cc2)[nH]c1-c1ccsc1 [Preparation Example 171] | B (A≧20>B≧10>C (minute))
CCCc1nc(-c2ccc(F)cc2)[nH]c1-c1ccsc1 [Preparation Example 172] | C (A≧20>B≧10>C (minute))
C[S+]([O-])Cc1nc(-c2ccc(F)cc2)[nH]c1-c1ccsc1 (centres unmarked) [Preparation Example 181] | B (A≧20>B≧10>C (minute))
FCCc1nc(-c2ccc(F)cc2)[nH]c1-c1ccccc1 [Preparation Example 182] | B (A≧20>B≧10>C (minute))
CCc1nc(-c2ccc(F)cc2)[nH]c1-c1cncnc1 [Preparation example 85] | C (A≧20>B≧10>C (minute))
CCCc1nc(-c2ccc(F)cc2)[nH]c1-c1cccnc1 [Preparation example 93] | B (A≧20>B≧10>C (minute))
CCc1c(-c2cccnc2)nc(-c2ccc(F)cc2)n1C.Cl.Cl [Preparation example 102, 5-ethyl-2-(4-fluoro-phenyl)-1-methyl-4-(3-pyridyl)imidazole dihydrochloride] | C (A≧20>B≧10>C (minute))
CNc1[nH]c(-c2ccc(F)cc2)nc1-c1ccccc1 [Preparation example 107, 5-methylamino-2-(4-fluorophenyl)-4-phenylimidazole] | B (A≧20>B≧10>C (minute))
COCc1nc(-c2ccc(F)cc2)[nH]c1-c1ccsc1 [Preparation example 122] | B (A≧20>B≧10>C (minute))
COCc1nc(-c2cccc(F)c2)[nH]c1-c1ccccc1 [Preparation example 123] | C (A≧20>B≧10>C (minute))
COCc1nc(-c2ccc(C#N)cc2)[nH]c1-c1ccccc1 [Preparation example 124] | B (A≧20>B≧10>C (minute))
COCc1nc(-c2ccc(C#N)cc2)[nH]c1-c1cccnc1 [Preparation example 125] | C (A≧20>B≧10>C (minute))
C[S+]([O-])Cc1nc(-c2ccc(C#N)cc2)[nH]c1-c1ccccc1 (centres unmarked) [Preparation example 137] | C (A≧20>B≧10>C (minute))
O=C(O)Cc1nc(-c2ccc(Cl)cc2)oc1-c1cccnc1 [Preparation example 142] | C (A≧20>B≧10>C (minute))
CCc1[nH]c(-c2cc(Cl)sc2S(=O)(=O)O)nc1-c1cccnc1.Cl.Cl [Preparation example 143, 2-(5-Chloro-2-sulfothiophen-3-yl)-5-ethyl-4-(3-pyridyl)-imidazole dihydrochloride] | C (A≧20>B≧10>C (minute))
CCc1[nH]c(-c2cc(Cl)sc2S(N)(=O)=O)nc1-c1cccnc1.Cl.Cl [Preparation example 144, 2-(5-Chloro-2-sulfamoylthiophen-3-yl)-5-ethyl-4-(3-pyridyl) imidazole dihydrochloride] | C (A≧20>B≧10>C (minute))

System: isolated rabbit urinary bladder
Assay: Relaxation effect on potassium-induced contraction of isolated rabbit urinary bladder
Type: cell-based
Details: 50% relaxation concentration; high-K+ (30 mM) pre-contracted rabbit bladder strips; relaxation as percentage of the maximum produced by 0.1 mM papaverine; read-out: EC50 value range
Experimental: Relaxation effect on potassium-induced contraction of isolated rabbit urinary bladder
Urinary bladder was isolated from Male NZW rabbits (2.0-3.5 kg) and immersed in ice-cold Krebs-bicarbonate solution (in mM: 118 NaCl, 4.7 KCl, 1.2, 2.5 CaCl2, MgSO4, 1.2 KH2PO4, 11 glucose, 25 NaHCO3). The urinary bladder was cut into longitudinal strips (5 mm length, 3-4 mm width) after mucosal layer was removed. Preparations were mounted in organ baths containing 10 ml of Krebs solution maintained at 37° C. and gassed with 95% O2/5% CO2. Accordingly, preparations were stretched with an initial tension of 2.0±1.0 g, and changes in isometric tension were measured by force-displacement transducer. The preparations were pre-contracted by changing organ-bath solution into high-K^+ (30 mM) Krebs solution (in mM: 92.7 NaCl, 30 KCl, 1.2, 2.5 CaCl2, MgSO4, 1.2 KH2PO4, 11 glucose, 25 NaHCO3).
After stable tension was obtained, compounds were added into organ baths cumulatively (10^−8M-10^−4M). The effects of compounds were expressed as a percentage of the maximum relaxation produced by 0.1 mM papaverine. 50% relaxation concentration (EC50) was calculated and EC50 value range (μM) of the compounds of the present invention was shown in the following Table 64 with a rank of A, B or C. These ranges are as mentioned below. 3≧C≧1≧B≧0.5≧A

Molecule | EC50
5-(5-chlorothiophen-2-yl)-2-(4-fluorophenyl)oxazole-4-yl propionic acid sodium salt [Preparation Example 339] | 1 to 3 µM

Same assay, conditions: Oryctolagus cuniculus; 50% relaxation concentration; high-K+ (30 mM) pre-contracted rabbit bladder strips; relaxation as percentage of the maximum produced by 0.1 mM papaverine; read-out: EC50 value range

Molecule | EC50
CCCc1nc(-c2ccccc2[N+](=O)[O-])[nH]c1-c1ccccc1 [Preparation example 39] | 1 to 3 µM
CCc1nc(-c2cccc(C#N)c2)[nH]c1-c1cccnc1 [Preparation example 57] | 1 to 3 µM
CCc1nc(-c2ccc(C)nc2)[nH]c1-c1ccsc1 [Preparation example 81] | 1 to 3 µM
CCCc1nc(-c2ccc(F)cc2)[nH]c1-c1cccc(OC)c1 [Preparation example 96] | 1 to 3 µM
COCc1nc(-c2ccc(F)cc2)[nH]c1-c1ccccc1 [Preparation example 121] | 1 to 3 µM
CSCc1nc(-c2cccc(F)c2)[nH]c1-c1ccccc1 [Preparation example 131] | 1 to 3 µM

Next, values leading:

EC50 | Molecule
1 to 3 µM | O=C([O-])Cc1nc(-c2ccc(F)cc2)oc1-c1ccc(Cl)s1.[Na+] [Preparation Example 152, 5-(5-chloro-thiophen-2-yl)-2-(4-fluorophenyl)oxazol-4-yl acetic acid sodium salt]
1 to 3 µM | COc1ccc(-c2nc(CC(=O)O)c(-c3cccs3)o2)cc1 [Preparation Example 155]
1 to 3 µM | O=C(O)Cc1nc(-c2ccc(F)cc2)oc1-c1csc2ccccc12 [Preparation Example 158]
0.5 to 1 µM | Cc1nc(-c2ccc(F)cc2)[nH]c1-c1ccsc1 [Preparation Example 168]
1 to 3 µM | CC(C)c1nc(-c2ccc(F)cc2)[nH]c1-c1ccsc1 [Preparation Example 169]
1 to 3 µM | CCCCc1nc(-c2ccc(F)cc2)[nH]c1-c1ccsc1 [Preparation Example 170]
1 to 3 µM | CCc1nc(-c2ccc(F)cc2)[nH]c1-c1ccsc1 [Preparation Example 171]
1 to 3 µM | CCCc1nc(-c2ccc(F)cc2)[nH]c1-c1ccsc1 [Preparation Example 172]
1 to 3 µM | Fc1ccc(-c2nc(CC(F)(F)F)c(-c3ccsc3)[nH]2)cc1 [Preparation Example 173]
1 to 3 µM | CCCc1nc(-c2ccccc2)[nH]c1-c1ccccc1 [Preparation Example 180]
0.5 to 1 µM | C[S+]([O-])Cc1nc(-c2ccc(F)cc2)[nH]c1-c1ccsc1 (centres unmarked) [Preparation Example 181]
≤ 0.5 µM | FCCc1nc(-c2ccc(F)cc2)[nH]c1-c1ccccc1 [Preparation Example 182]
1 to 3 µM | O=C(O)Cc1nc(-c2ccc(Cl)cc2)oc1C1CCCC1 [Preparation Example 265]
≤ 0.5 µM | O=C(O)Cc1[nH]c(-c2cc3ccccc3s2)nc1-c1ccc(Cl)cc1 [Preparation Example 355]
1 to 3 µM | CCOC(=O)C(N)c1nc(-c2ccc(F)cc2)oc1-c1ccc(Cl)s1 (centres unmarked) [Preparation Example 372, ethyl 2-amino-2-[5-(5-chlorothiophen-2-yl)-2-(4-fluorophenyl)-oxazol-4-yl]acetate]
0.5 to 1 µM | CN(C)c1ccc(-c2nc(-c3cccs3)c(CC(=O)O)o2)cn1 [Preparation Example 506]
≤ 0.5 µM | COc1ccc(-c2nc(-c3cccs3)c(CC(=O)O)o2)cc1 [Preparation Example 507]
≤ 0.5 µM | COc1ccc(-c2nc(-c3ccsc3)c(CC(=O)O)s2)cc1 [Preparation Example 597]
1 to 3 µM | CCCc1nc(-c2ccccn2)[nH]c1-c1cccs1 [Preparation example 5]
≤ 0.5 µM | CCc1nc(-c2csc(Br)c2)[nH]c1-c1cccnc1 [Preparation example 19]
≤ 0.5 µM | CCCc1nc(-c2ccsc2)[nH]c1-c1ccccc1 [Preparation example 33]
1 to 3 µM | CCCc1nc(-c2ccc[nH]2)[nH]c1-c1ccccc1 [Preparation example 35]
1 to 3 µM | CCCc1nc(-c2cccc3ccccc23)[nH]c1-c1ccccc1 [Preparation example 36]
1 to 3 µM | CCCc1nc(-c2cc3ccccc3o2)[nH]c1-c1ccccc1 [Preparation example 38]
0.5 to 1 µM | CCc1nc(-c2ccc(F)cc2)[nH]c1-c1cnccn1 [Preparation example 49]
≤ 0.5 µM | CCc1nc(-c2ccc(F)cc2)[nH]c1-c1nccs1 [Preparation example 51]
≤ 0.5 µM | CCc1nc(-c2ccc(F)cc2)[nH]c1-c1cscn1 [Preparation example 52]
≤ 0.5 µM | CCc1nc(-c2ccc(F)cc2)[nH]c1-c1ccccc1OC [Preparation example 84]
0.5 to 1 µM | CCCc1nc(-c2ccc(F)cc2)[nH]c1-c1ccccn1 [Preparation example 97]
